Data: US11208384B2, “Sulfinylpyridines and their use in the treatment of cancer” (Oblique Therapeutics AB, priority 2017, dated 2021)

Assays:
[1] = biological target: recombinant thioredoxin reductase 1 (TrxR1) (Homo sapiens (Human), UniProt Q16881); assay: Inhibition of recombinant TrxR1 (DTNB assay); type: biochemical; conditions: 30 nM TrxR1, 250 μM NADPH, 15 minutes incubation, O.D. 412 nm, read-out: TrxR inhibition (IC50)
Description: (§1) Small molecule inhibition of recombinant thioredoxin reductase 1 (TrxR1) and gluthathione reductase (GR) was examined in 96-well plate format. 30 nM TrxR1 was incubated in the presence of 250 μM NADPH, 0.1 mg/ml BSA, and various concentrations of compound (1% DMSO final) in 50 mM Tris (pH 7.5) and 2 mM EDTA buffer for 15 minutes. Following the incubation period, 2 mM DTNB was added to each well and the change in O.D. at 412 nm was followed. Percent activity was determined using DMSO vehicle and no TrxR1 (blank) controls. 2 nM GR was incubated in the presence of 250 μM NADPH, 0.1 mg/ml BSA, and various concentrations of compounds (1% DMSO final) in 50 mM Tris (pH 7.5) and 2 mM EDTA buffer for 15 minutes. Following the incubation period, 1 mM GSSG was added to each well and the change in O.D. at 340 nm was followed. Percent activity was determined using DMSO vehicle and no GR (blank) controls.

[2] = biological target: recombinant gluthathione reductase (GR) (Homo sapiens (Human), UniProt P00390); assay: Inhibition of recombinant GR (GSSG assay); type: biochemical; conditions: 2 nM GR, 250 μM NADPH, 15 minutes incubation, O.D. 340 nm
Sequence of recombinant gluthathione reductase (GR) (P00390 44-522): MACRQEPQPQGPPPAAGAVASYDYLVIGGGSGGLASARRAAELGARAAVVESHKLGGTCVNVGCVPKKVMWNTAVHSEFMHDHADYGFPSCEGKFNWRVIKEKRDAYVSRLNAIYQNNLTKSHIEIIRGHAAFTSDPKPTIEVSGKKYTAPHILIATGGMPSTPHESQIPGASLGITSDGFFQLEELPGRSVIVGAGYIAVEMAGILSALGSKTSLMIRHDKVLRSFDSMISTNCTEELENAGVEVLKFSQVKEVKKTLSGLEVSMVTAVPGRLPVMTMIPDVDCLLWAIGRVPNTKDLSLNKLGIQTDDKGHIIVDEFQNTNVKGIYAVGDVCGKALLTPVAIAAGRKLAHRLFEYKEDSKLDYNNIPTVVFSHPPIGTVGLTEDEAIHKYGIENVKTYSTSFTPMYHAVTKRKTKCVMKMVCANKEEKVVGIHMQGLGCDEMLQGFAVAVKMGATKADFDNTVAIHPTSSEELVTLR
Description: as §1

MDA-MB-231 cells = assay: Breast cancer cell viability assay (Alamar Blue); type: cell-based; conditions: Homo sapiens, 72 hrs, 10% FBS media containing 25 nM selenite, 2000 cells/well
Description: MDA-MB-231 cells were plated 2000 cells/well in 96-well black optical plates in the presence of 10% FBS media containing 25 nM selenite. The following day cells were treated with various concentrations of compounds (0.1% DMSO final) and incubated for 72 hrs. After the incubation Alamar Blue reagent was added to each well and incubated for additional 3 hrs. Fluorescence was read ex:530 nm/em:590 nm, and percent of viability was determined using DMSO vehicle and no cell (blank) controls.

U-87 MG = assay: Cancer cell viability assay (MTT), U-87 MG; type: cell-based; conditions: Homo sapiens, 72 hrs, 4000 cells/well, 10% FBS media
Description: (§2) Breast cancer and glioblastoma cell lines were plated 4000 cells/well in 96-well plates in the presence of 10% FBS media. The following day cells were treated with various concentrations of the compound of Example 1 (0.1% DMSO final) and incubated for 72 hrs. After the incubation An MTT assay was performed to access cell viability. Percent of viability was determined using DMSO vehicle and no cell (blank) controls.

MDA-MB-231 = assay: Cancer cell viability assay (MTT), MDA-MB-231; type: cell-based; conditions: Homo sapiens, 72 hrs, 4000 cells/well, 10% FBS media
Description: as §2

MDA-MB-468 = assay: Cancer cell viability assay (MTT), MDA-MB-468; type: cell-based; conditions: Homo sapiens, 72 hrs, 4000 cells/well, 10% FBS media
Description: as §2

Sequence of recombinant thioredoxin reductase 1 (TrxR1) (Q16881 151-649): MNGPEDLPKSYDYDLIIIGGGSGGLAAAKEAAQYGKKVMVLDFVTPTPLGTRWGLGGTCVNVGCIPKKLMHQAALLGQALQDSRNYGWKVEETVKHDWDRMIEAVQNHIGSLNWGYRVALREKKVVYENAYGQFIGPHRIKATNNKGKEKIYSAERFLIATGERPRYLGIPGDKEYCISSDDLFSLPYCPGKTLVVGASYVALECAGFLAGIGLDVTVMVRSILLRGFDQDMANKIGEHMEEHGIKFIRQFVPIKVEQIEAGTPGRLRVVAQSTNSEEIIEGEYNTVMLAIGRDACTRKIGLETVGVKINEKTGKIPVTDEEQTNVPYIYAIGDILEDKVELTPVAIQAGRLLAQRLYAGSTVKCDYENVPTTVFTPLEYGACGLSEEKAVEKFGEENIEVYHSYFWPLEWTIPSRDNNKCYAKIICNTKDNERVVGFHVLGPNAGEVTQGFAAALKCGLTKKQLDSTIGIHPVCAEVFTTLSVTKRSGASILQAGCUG

- IC50 [1]: 0.00316 µM
- IC50 [2]: 41.3 µM
- IC50 (MDA-MB-231 cells): 2.99 µM
- IC50 (U-87 MG): 6.76 µM
- IC50 (MDA-MB-231): 5.26 µM
- IC50 (MDA-MB-468): 3.86 µM
SMILES: COc1ccc([N+](=O)[O-])c([S+]([O-])c2ccc(Cl)cc2)n1 (stereo not drawn) [Example 1, 2-((4-Chlorophenyl)sulfinyl)-6-methoxy-3-nitropyridine]
